Assay results: patent US11917993B2, “Antimicrobial compositions” (LANXESS Corporation, priority 2017, dated 2024)

Tests used:
Type in all cases: cell-based
[1] = test system: K. aerogenes (ATCC 13048) and P. aeruginosa (ATCC 9027); assay: Challenge testing in tryptic soy broth at pH 9, time points from ASTM 2574; conditions: pH 9, tryptic soy broth, up to one week
Description: EP testing evaluates results at the 2-day, 7-day, 14-day, and 28-day marks. […] Strains of K. aerogenes (ATCC 13048) and P. aeruginosa (ATCC 9027) were utilized for this testing as they are commonly found in many products, including without limitation cosmetics and coatings. These organisms were challenged in the soy broth using the same methods described in the Challenge Testing Methodology section. The time points were selected from ASTM 2574, which is a method for evaluating antimicrobial efficacy in waterborne emulsion based paints.

[2] = test system: A. brasiliensis, C. albicans, E. coli, P. aeruginosa, S. aureus; assay: Microbe challenge testing (USP 51 / EP) in tryptic soy broth growth media; conditions: for effectiveness against microbe strains compared to no antimicrobial: 0.5 wt. %; for concentration achieving passing efficacy according to EP criteria / concentration achieving passing efficacy according to USP-51 criteria / efficacy versus bacteria, yeast and mold: tryptic soy broth; for efficacy versus bacteria, yeast and mold: 30 minutes to 28 days
Description: (§1) One skilled in the art would be able to determine and utilize other industry testing methods useful to evaluate the efficacy of the present inventive compositions.
(§2) EP testing evaluates results at the 2-day, 7-day, 14-day, and 28-day marks.
(§3) For the European Pharmacopeia, a “pass” test for efficacy is a two-log reduction for bacteria after two days, three-log reduction for bacteria after […], two-log reduction for mold and yeast at 14 days and no increase at 28 days.
As such, it is an exceptional test medium and surrogate for evaluating antimicrobial efficacy, particularly for water-based or aqueous applications, although its value is not limited as such.
Product use applications involve a variety of pH conditions. […] In addition, antimicrobial compositions were added in amounts reflecting the wt. % used in an end use product, based on the total weight of all of the components of the end use product.
The efficacy of 3-phenyl propanol in tryptic soy broth growth media at pH 6.5 versus a number of microbes was evaluated according to methods described in the Challenge Testing Methodology section, above.
The efficacy of 3-phenyl propanol in tryptic soy broth growth media at pH 8.0 versus a number of microbes was evaluated according to methods described in the Challenge Testing Methodology section above.

[3] = test system: A. brasiliensis, C. albicans, E. coli, P. aeruginosa, S. aureus; assay: Microbe challenge testing (USP 51 / EP) in model skin lotion of Table 1
Description: as §1, §2, §3
Skin Lotion Formulation Experimental—An exemplary, model skin lotion having a pH of 6.5 as set forth below in Table 1 was prepared for testing. The invention is not limited to use in this specific lotion but was used to illustrate the advantages of the invention.
Use of 3-phenyl propanol in the skin lotion formulation as set forth in Table 1 above was evaluated according to methods described in the Challenge Testing Methodology section above. In this efficacy screen study reflected in FIGS. 18 and 19, only the time intervals at 2-day and 14-day were measured, as these are critical time points for USP-51 and European Pharmacopeia. In this example, a triblend or tri-component antimicrobial composition was used comprising 3-phenyl propanol added to the model skin lotion containing both sodium benzoate and benzyl alcohol to enhance the antimicrobial activity at pH 6.5, a common pH for skin lotions.
(§4) In FIG. 21 and FIG. 22, use of 3-phenyl propanol in the skin lotion set forth in Table 1 above was evaluated according to methods described in the Challenge Testing Methodology section using the microbes identified in Example 1. In this example, 3-phenyl propanol was added to the model skin lotion with sodium benzoate at 0.5 wt. % to enhance the antimicrobial activity at pH 6.5. In these examples, 0.5 wt. % of 3-phenyl propanol in addition to 0.5 wt. % sodium benzoate was required to pass the EP 2 day and 14-day criteria.
as §4, with “23” for “21”, “24,” for “22,”, “section above,” for “section”, “benzyl alcohol” for “sodium benzoate”, “8.0.” for “6.5.”
Use of sodium benzoate and benzyl alcohol at pH 6.5 in the skin lotion set forth in Table 1 above was evaluated according to methods described in paragraphs the Challenge Testing Methodology section above, using the microbes identified in Example 1. Again, in this case, only 2-day and 14-day time points were measured.

Structure (SMILES): OCc1ccccc1 [benzyl alcohol, reference compound]
- antimicrobial effectiveness over time ([1]; 2.5 wt. %): unexpected antimicrobial effectiveness

Structure (SMILES): CC(CO)Cc1ccccc1 (stereo not drawn) [2-methyl-3-phenyl propanol]
- antimicrobial effectiveness over time ([1]; 0.5 wt. %): unexpected antimicrobial effectiveness

Structure (SMILES): OCCCc1ccccc1 [3-phenyl propanol]
- effectiveness against microbe strains compared to no antimicrobial ([2]; pH 3, tryptic soy broth, up to 28 days): demonstrated the effectiveness
- effectiveness against microbe strains compared to no antimicrobial ([2]; pH 10, tryptic soy broth): demonstrated the effectiveness
- concentration achieving passing efficacy according to EP criteria ([2]; pH 6.5): 1 wt. %
- concentration achieving passing efficacy according to USP-51 criteria ([2]; pH 6.5): 0.5 wt. %
- efficacy versus bacteria, yeast and mold ([2]; pH 6.5, various concentrations): efficacious versus bacteria, yeast and mold
- concentration achieving passing efficacy according to EP criteria ([2]; pH 8.0): 1 wt. %
- concentration achieving passing efficacy according to USP-51 criteria ([2]; pH 8.0): 0.25 wt. %
- efficacy versus bacteria, yeast and mold ([2]; pH 8.0, various concentrations): efficacious versus bacteria, yeast and mold
- addition of 3-phenyl propanol meeting the two-day criteria of the European Pharmacopeia ([3]; skin lotion pH 6.5 with 0.25 wt. % sodium benzoate and 0.25 wt. % benzyl alcohol): 0.35 wt. %
- effect of small concentrations on performance against E. coli and S. aureus versus control (0 wt. %) ([3]; skin lotion pH 6.5 with 0.25 wt. % sodium benzoate and 0.25 wt. % benzyl alcohol, after 14 days): significantly decreased performance
- loading of 3-phenyl propanol achieving the required 14-day efficacy under European Pharmacopeia criteria ([3]; skin lotion pH 6.5 with 0.25 wt. % sodium benzoate and 0.25 wt. % benzyl alcohol, bacteria, mold and yeast): approximately 0.35 wt. %
- 3-phenyl propanol required to pass the EP 2 day and 14-day criteria ([3]; skin lotion pH 6.5 with 0.5 wt. % sodium benzoate): 0.5 wt. %
- 3-phenyl propanol required to pass the EP 2 day and 14-day criteria ([3]; skin lotion pH 8.0 with 0.5 wt. % benzyl alcohol): 0.5 wt. %
